Measured values from publication PMC6688371, “Effect of the inhaled PDE4 inhibitor CHF6001 on biomarkers of inflammation in COPD” (Respiratory Research, 2019).

Tested on: TNFα
Assay: Ex-vivo lipopolysaccharide (LPS) stimulated TNFα in whole blood
Design: species or system human
Settings: Day 32, geometric mean (%CV)
From the text: A patient had to have a minimum of one acceptable sputum sample on Day 20, 26 or 32 to be included in the sputum biomarker evaluation for that treatment period, with the available cell count and biomarker data averaged for each patient. The mean change from baseline (pre-dose on Day 1 of each treatment period) was then compared between treatments using an analysis of covariance (ANCOVA) that included treatment, patient and period as fixed effects, and baseline values as covariate. The mean change from baseline to Day 32 for biomarkers in blood were analysed using the same model as for sputum data. All data were log-transformed before analysis, and the results are presented as ratio of geometric means. […]
Approximately 80 to 100 cells were to be counted per square , with the number of live leukocytes, dead leukocytes and squamous cells counted. […]
Only one of the sputum samples induced at 2 h post-dose on Days 20, 26 or 32 was used to evaluate CHF6001 concentration, with the evaluation performed only if a minimum of 300 mg of residual sputum remained. […] The concentration of CHF6001 was evaluated using a LC-MS/MS method following solid phase extraction. […]
The levels of inflammatory biomarkers were evaluated from blood collected at 2 h post-dose […]
Levels of biomarkers were assessed as follows: […]
• Serum SP-D: Sandwich Immunoassay, using PheraSTAR Plate Reader . […]

CS(=O)(=O)Nc1ccc(C(=O)O[C@@H](Cc2c(Cl)c[n+]([O-])cc2Cl)c2ccc(OC(F)F)c(OCC3CC3)c2)cc1OCC1CC1 [CHF6001]
Tumour necrosis factor α ex-vivo, post-baseline (800 µg BID): 2096.916 (177.0) pg/mL
Tumour necrosis factor α ex-vivo, post-baseline (1600 µg BID): 1750.418 (192.0) pg/mL
